One block for each compound: values may come before it.
Legend:
[1] = target: T1, Serine/threonine-protein kinase Nek9 (Homo sapiens) (UniProt Q8TD19); assay: Selectivity interaction (Kinase panel (KiNativ target engagement assay in Jurkat cells)) EUB0001635a NEK9; type: cell-based; conditions: at 1 µM
T1 sequence (whole entry): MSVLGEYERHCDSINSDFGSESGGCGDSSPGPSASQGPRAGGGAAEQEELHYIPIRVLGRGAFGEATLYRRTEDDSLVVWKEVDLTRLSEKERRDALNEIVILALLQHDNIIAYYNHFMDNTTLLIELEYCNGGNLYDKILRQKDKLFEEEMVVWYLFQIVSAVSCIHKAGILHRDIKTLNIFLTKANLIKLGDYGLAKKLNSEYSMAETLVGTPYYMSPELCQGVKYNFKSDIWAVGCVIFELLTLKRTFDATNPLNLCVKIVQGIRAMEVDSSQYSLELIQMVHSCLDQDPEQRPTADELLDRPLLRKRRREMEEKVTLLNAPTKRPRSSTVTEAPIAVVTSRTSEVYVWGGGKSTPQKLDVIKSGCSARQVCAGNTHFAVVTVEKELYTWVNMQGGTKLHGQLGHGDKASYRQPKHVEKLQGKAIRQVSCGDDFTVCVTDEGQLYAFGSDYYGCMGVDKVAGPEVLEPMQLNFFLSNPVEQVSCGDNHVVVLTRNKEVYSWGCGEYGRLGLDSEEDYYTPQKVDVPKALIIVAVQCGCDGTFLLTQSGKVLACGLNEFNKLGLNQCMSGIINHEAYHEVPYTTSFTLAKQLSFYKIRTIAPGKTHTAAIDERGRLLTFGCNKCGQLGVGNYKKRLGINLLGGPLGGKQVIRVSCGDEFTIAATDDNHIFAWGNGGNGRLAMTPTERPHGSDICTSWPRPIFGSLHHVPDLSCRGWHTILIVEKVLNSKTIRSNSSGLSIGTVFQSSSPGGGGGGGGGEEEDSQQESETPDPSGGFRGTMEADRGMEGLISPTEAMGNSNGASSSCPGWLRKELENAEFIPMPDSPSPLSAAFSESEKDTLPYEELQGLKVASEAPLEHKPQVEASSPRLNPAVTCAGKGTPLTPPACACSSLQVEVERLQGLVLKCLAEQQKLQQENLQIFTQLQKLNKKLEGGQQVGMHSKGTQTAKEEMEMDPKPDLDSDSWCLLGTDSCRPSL

[2] = target: Glycogen synthase kinase-3 beta (Homo sapiens, UniProt P49841); assay: Selectivity interaction (KinomeScan (DiscoverX)) EUB0000595a GSK3B; conditions: at 10 µM
[3] = target: Vasopressin V2 receptor (Homo sapiens, UniProt P30518); assay: Selectivity interaction (Vasopressin V2 receptor binding assay, human recombinant ) EUB0000877a AVPR2
[4] = target: Tyrosine-protein kinase Lck (Homo sapiens, UniProt P06239); assay: Selectivity interaction (ProQinase) EUB0000171b LCK
[5] = target: T2, Serine/threonine-protein kinase 17A (Homo sapiens) (UniProt Q9UEE5); assay: Selectivity interaction (ProQinase) EUB0000171b STK17A
T2 sequence (whole entry): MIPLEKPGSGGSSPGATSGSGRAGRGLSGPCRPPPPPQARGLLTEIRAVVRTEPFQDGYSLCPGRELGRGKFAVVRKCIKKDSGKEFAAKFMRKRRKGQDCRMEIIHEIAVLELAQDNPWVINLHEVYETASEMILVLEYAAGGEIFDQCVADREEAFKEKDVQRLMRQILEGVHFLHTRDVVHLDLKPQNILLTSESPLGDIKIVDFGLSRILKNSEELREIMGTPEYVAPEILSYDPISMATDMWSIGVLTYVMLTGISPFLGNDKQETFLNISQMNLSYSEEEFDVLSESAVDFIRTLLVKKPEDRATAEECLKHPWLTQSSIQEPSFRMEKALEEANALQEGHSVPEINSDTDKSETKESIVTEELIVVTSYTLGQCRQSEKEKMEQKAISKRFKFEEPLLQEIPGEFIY

[6] = target: T3, Ephrin type-B receptor 4 (Homo sapiens) (UniProt P54760); assay: Selectivity interaction (SelectScreen profiling (Invitrogen)) EUB0000607a EPHB4; conditions: at 2 µM
T3 sequence (whole entry): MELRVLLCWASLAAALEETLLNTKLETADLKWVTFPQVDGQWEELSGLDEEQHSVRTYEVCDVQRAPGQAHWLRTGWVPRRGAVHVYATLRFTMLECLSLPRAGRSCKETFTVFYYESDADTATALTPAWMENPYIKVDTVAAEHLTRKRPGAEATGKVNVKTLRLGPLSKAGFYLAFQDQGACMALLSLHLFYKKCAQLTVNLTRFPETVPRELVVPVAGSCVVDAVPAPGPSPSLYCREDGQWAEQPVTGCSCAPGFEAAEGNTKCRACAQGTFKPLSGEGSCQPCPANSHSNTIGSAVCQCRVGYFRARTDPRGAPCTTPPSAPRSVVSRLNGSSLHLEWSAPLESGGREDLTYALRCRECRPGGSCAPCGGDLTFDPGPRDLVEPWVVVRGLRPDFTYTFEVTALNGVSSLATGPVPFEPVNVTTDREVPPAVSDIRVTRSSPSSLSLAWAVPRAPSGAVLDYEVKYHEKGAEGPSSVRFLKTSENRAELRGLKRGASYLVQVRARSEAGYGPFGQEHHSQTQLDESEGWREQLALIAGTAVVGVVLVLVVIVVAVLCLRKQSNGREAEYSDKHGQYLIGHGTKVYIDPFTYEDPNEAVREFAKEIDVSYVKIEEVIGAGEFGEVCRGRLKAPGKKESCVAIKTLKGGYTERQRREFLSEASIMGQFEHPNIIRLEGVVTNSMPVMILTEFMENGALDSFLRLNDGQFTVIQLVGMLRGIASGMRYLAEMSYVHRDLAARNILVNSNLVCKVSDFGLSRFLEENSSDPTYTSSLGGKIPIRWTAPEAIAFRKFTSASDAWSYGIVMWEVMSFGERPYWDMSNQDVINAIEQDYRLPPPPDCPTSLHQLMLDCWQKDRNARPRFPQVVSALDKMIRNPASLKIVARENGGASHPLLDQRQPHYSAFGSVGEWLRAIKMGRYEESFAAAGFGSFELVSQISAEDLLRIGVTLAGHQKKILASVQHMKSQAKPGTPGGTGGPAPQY

[7] = target: Phosphatidylinositol 4,5-bisphosphate 3-kinase catalytic subunit gamma isoform (Homo sapiens) (UniProt P48736); assay: Selectivity interaction (Panel of kinases, GPCRs, ion channels and transporters (enzymatic assay)) EUB0000266bCl PIK3CG
Sequence of Phosphatidylinositol 4,5-bisphosphate 3-kinase catalytic subunit gamma isoform (Homo sapiens) (P48736 whole entry, looked up, canonical isoform): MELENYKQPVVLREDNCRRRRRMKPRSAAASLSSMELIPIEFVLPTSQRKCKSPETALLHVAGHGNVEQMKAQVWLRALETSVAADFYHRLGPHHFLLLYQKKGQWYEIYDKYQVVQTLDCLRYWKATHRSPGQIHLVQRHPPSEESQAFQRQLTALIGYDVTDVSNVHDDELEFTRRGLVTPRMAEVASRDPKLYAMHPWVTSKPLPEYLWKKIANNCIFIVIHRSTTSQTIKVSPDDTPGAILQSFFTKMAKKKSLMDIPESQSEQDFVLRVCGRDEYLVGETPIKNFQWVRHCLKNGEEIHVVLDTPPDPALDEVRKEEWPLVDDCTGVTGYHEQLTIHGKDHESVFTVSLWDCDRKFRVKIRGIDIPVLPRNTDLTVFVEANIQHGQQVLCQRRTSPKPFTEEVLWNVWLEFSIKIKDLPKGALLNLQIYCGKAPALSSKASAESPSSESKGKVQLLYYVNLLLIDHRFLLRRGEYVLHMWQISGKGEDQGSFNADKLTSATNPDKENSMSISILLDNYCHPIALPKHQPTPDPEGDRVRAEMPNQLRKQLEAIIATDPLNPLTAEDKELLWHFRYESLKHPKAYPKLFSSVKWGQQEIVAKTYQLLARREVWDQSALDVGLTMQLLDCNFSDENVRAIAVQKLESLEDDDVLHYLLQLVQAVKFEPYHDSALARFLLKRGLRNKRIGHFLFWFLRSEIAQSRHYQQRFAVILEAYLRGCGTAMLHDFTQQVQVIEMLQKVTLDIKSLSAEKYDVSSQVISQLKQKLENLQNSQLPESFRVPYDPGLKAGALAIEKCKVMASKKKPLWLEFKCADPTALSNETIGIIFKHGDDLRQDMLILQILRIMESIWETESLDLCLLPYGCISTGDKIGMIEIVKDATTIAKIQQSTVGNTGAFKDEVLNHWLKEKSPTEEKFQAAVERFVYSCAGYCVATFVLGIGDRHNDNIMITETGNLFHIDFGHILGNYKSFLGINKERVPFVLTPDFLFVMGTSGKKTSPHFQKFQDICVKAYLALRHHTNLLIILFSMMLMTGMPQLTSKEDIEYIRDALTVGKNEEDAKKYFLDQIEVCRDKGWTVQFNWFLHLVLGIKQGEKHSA

Sequence of Tyrosine-protein kinase Lck (P06239 2-509 limits assumed): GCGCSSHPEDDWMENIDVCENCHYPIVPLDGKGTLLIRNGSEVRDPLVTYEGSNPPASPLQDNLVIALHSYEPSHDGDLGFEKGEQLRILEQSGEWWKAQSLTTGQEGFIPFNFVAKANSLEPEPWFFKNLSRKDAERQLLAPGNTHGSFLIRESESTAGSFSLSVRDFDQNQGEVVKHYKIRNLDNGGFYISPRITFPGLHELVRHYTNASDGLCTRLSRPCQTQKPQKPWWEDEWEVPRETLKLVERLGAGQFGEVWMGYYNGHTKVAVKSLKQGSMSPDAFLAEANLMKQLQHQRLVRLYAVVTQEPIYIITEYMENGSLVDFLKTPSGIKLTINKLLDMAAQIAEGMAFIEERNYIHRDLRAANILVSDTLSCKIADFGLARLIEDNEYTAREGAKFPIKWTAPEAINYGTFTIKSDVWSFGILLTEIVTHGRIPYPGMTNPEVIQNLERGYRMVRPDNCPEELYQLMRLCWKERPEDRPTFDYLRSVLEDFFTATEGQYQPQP
Sequence of Vasopressin V2 receptor (P30518 whole entry): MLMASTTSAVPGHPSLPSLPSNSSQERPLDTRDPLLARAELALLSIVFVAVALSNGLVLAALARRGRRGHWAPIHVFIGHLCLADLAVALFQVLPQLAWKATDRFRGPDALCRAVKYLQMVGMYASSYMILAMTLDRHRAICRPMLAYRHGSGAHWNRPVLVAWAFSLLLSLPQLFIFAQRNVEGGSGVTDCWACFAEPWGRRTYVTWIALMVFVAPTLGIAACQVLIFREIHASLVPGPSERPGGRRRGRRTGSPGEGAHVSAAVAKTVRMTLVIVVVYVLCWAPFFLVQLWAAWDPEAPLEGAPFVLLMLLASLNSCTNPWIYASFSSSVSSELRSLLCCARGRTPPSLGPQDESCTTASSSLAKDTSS
Sequence of Glycogen synthase kinase-3 beta (P49841 whole entry, looked up): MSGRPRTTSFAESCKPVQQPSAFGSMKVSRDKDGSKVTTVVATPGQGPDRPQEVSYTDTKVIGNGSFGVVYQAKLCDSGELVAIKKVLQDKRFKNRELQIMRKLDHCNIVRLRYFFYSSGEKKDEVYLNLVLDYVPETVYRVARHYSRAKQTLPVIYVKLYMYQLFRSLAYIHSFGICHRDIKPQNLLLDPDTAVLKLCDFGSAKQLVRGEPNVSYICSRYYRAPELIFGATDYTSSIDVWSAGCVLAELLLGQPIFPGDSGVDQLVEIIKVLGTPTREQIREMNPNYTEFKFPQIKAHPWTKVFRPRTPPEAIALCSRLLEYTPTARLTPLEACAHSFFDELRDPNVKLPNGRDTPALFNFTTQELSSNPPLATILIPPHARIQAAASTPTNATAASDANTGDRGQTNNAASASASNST

Compound: C=CC(=O)Nc1ccc(C(=O)Nc2[nH]nc3c2CN(C(=O)N[C@H](CN(C)C)c2ccccc2)C3(C)C)cc1
- % of engagement ([1]; Selectivity number of off-targets 0.0, Selectivity number of targets 233.0, Source Knowledge https://www.sciencedirect.com/science/article/pii/S2451945619300674?via%3Dihub): -1.8%
- % of engagement [1]: -1.7%

Compound: COCC(=O)NC/C=C/c1ccc2ncnc(Nc3ccc(Oc4ccc(C)nc4)c(C)c3)c2c1 [CP-724714]
- % of control [2]: 68%

Compound: C=CC(=O)Nc1cccc(C(=O)Nc2ccc(Nc3cc(-c4[nH]c(SC)nc4C)ccn3)cc2)c1
- % of control ([4]; at 1 µM): 85%
- % of control ([4]; at 5 µM): 89%
- % of control ([5]; at 1 µM): 78%
- % of control ([5]; at 5 µM): 35%

Compound: CNC(=O)Nc1ccc(-c2nc(N3CC4CCC(C3)O4)c3cnn(C4CCC5(CC4)OCCO5)c3n2)cc1
- % of inhibition [6]: -4%

More lines, now with the values ahead:

- IC50 [3]: > 30 µM
Compound: CCC(=O)N1CC[C@H](Nc2ncnc3c2CN(c2cnc(OC)c(C(F)(F)F)c2)CC3)C1 [LENIOLISIB]

- pXC50 [7]: < 4.5 M
Compound: CCn1c(-c2nc3cc(C(=O)N4CCCC(N)C4)ccc3n2C)cc2ccccc21 (stereo not given)
